From paper PMC4319893, “Targeting Protein-Protein Interactions with Trimeric Ligands: High Affinity Inhibitors of the MAGUK Protein Family” (PLoS ONE, 2015)

Tests used:
single PDZ3 domain = test system: single PDZ3 domain; design: method as in PMID 21653701; details: observed previously; cited from earlier work
PSD-95 PDZ1-2-3 = biological target: T1, PSD-95 PDZ1-2-3 (Homo sapiens, UniProt P78352); assay: Fluorescence polarization (FP) binding assay, PSD-95 PDZ1-2-3
T1 construct: 7xHis; made in house; host or cells: E. coli BL21(DE3)pLysS
Method: (§1) The monomeric FP assay was conducted as previously described except that the proteins were diluted in 50 mM TRIS, 100 mM NaCl, 1 mM ethylenediaminetetraacetate (EDTA), 1 mM DTT.[34] The monomeric probe was only used when monomeric binding to PSD95 PDZ1-2 and PSD95 PDZ1-2-3 was evaluated, whereas 18 was used as probe for evaluating the binding of the dimeric and trimeric ligands. […] In all of the experiments a blank (buffer) and a reference sample (0.5 nM probe in buffer) were used. A total of 30 μl was pipetted into the wells of a 384 flat black bottom well plate. The FP was measured on a Tecan Safire 2 microplate reader (Tecan Group LTD., Männedorf, Germany). The absorption/emission wavelengths were set to 635/670 nm, corresponding to the Cy5 spectra. The obtained IC50 values were converted to K i values using the equations described by Nikolovska-Coleska et al.[35] […] Consequently, the Ki-value will become negative when the difference between the IC50-value and the Kd is too great.[35, 36]

FL PSD-95 (I100W) = biological target: T2, FL PSD-95 (I100W) (Homo sapiens, UniProt P78352, I100W); assay: Stopped-flow spectrometry binding kinetics, FL PSD-95 I100W; details: 50 mM potassium phosphate pH 7.5, 10°C
T2 construct: PSD-95 FL: 61-end; made in house; host or cells: E. coli (pET32m3C vector; QuickChange mutagenesis)
Method: (§2) Kinetic experiments using stopped-flow were carried out under the conditions used previously,[37, 38] namely in 50 mM potassium phosphate, pH 7.5 at 10°C. The change in fluorescence upon binding was monitored with a 330 nm band-pass filter following excitation at 280 nm. […] Regarding the fluorophores and the observed changes in fluorescence, several events contribute to the observed signal. […] This could be either through FRET or by absorbing excitation light. Both fluorophores are also themselves excited at 280 nm (less) and 330 nm (more) and their intrinsic fluorescence may change on binding to the proteins.
(§3) This observed rate constant might be the average of the two k obs values observed upon excitation at 280 nm/emission at 330 nm.

FL PSD-95 (I195W) = biological target: T3, FL PSD-95 (I195W) (Homo sapiens, UniProt P78352, I195W); assay: Stopped-flow spectrometry binding kinetics, FL PSD-95 I195W; details: 50 mM potassium phosphate pH 7.5, 10°C
T3 construct: PSD-95 FL: 61-end; made in house; host or cells: E. coli (pET32m3C vector; QuickChange mutagenesis)
Method: as §2, §3

FL PSD-95 wild-type = biological target: T4, FL PSD-95 wild-type (Homo sapiens, UniProt P78352); assay: Stopped-flow spectrometry binding kinetics, FL PSD-95 wild-type; details: 50 mM potassium phosphate pH 7.5, 10°C
T4 construct: PSD-95 FL: 61-end; made in house; host or cells: E. coli (pET32m3C vector; construct donated by M. Zhang)
Method: as §2, §3

PSD-95 PDZ1-2 = PSD-95 PDZ1-2 (Homo sapiens, UniProt P78352); details: FP
Method: as §1

| Substance | observed rate constant dansyl-1/PDZ3 (single PDZ3 domain) | fold lower affinity compared to trimeric ligand 17, PDZ1-2-3 (PSD-95 PDZ1-2-3) | kon app, PSD-95 FL I100W (FL PSD-95 (I100W)) | kon app, PSD-95 FL I195W (FL PSD-95 (I195W)) | kon app, PSD-95 wild-type (FL PSD-95 wild-type) | fold lower affinity compared to trimeric ligand 17, PDZ1-2 (PSD-95 PDZ1-2) |
| --- | --- | --- | --- | --- | --- | --- |
| dansyl-1: N-terminally dansylated CRIPT hexapeptide YKQTSV | 1.6 s⁻¹ | – | – | – | – | – |
| YKQTSV [Compound 1] | – | > 1000 fold | 6.3e+06 ± 190000 M⁻¹ s⁻¹ | 6.3e+06 ± 130000 M⁻¹ s⁻¹ | 6e+06 ± 100000 M⁻¹ s⁻¹ | > 1000 fold |
